# Measured values: PubChem BioAssay AID2423 (Broad Institute, 2010)
# Inconclusive results are not listed. Calls of active or inactive are those of the source. How the calls were made is not given here.
# Test system: C. albicans CaCi-8 + fluconazole, Alamar Blue growth, 48 h
# Assay: resistant C. albicans growth inhibition with fluconazole, dose response, CaCi-8 strain, Alamar Blue fluorescence (AID 2423)
row,SMILES,EC50
1,COc1cc(/C=C(\C#N)c2nc3ccccc3[nH]2)ccc1O,1490 nM
2,CNCc1ccccc1Sc1ccc(O)c(O)c1,6840 nM
3,O=[N+]([O-])c1ccc(C2[C@H]3C(c4ccccc4)=NC4(CCCC4)N23)cc1 (stereo not given in full),> 15000 nM (inactive)
4,COC(=O)Cn1nc(-c2ccccc2)c2ccccc21,2280 nM
5,CC(=O)c1ccc(NC(=O)Nc2cccc3ccccc23)cc1,> 15000 nM (inactive)
6,CN(C)S(=O)(=O)Oc1cccc(C(=O)Nc2ccc(Cl)cc2)c1,2970 nM
7,O=C(Nc1nnc(SCc2ccc(Cl)cc2)s1)c1cnccn1,1550 nM
8,Cc1ccsc1/C=N/NS(=O)(=O)c1ccc([N+](=O)[O-])cc1,7370 nM
9,Cc1ccc(OCC(=O)N/N=C\c2c(C)[nH]n(-c3ccccc3)c2=O)c([N+](=O)[O-])c1,6600 nM
10,O=C(/C=C/c1ccc([N+](=O)[O-])o1)NNC(=O)c1ccc(F)cc1,1190 nM
11,O=C(Nc1ccc(OCc2ccccc2Cl)cc1)c1cccnc1,3710 nM
12,Cc1ccccc1C(=O)NNC(=S)NC(=O)c1ccc(Cl)cc1Cl,1390 nM
13,CCc1ccc(/C=C2\SC(=S)N(CCCC(=O)Nc3ccccc3C(=O)O)C2=O)cc1,304 nM
14,CC1Oc2cc3oc4c(O)c(O)ccc4c(=O)c3c(O)c2C1(C)C (stereo not given),14400 nM
15,CCCCC(=O)NC(c1ccc(N(CC)CC)cc1)c1ccc2cccnc2c1O (stereo not given),468 nM
16,CCOC(=O)c1c(NC(=S)NCC2CCCO2)sc(C)c1C (stereo not given),< 120 nM
17,O=C(NCc1cccnc1)c1ccc(-c2cccc(Cl)c2Cl)o1,1760 nM
18,Cc1nc2c(=O)oc3ccccc3c2n1-c1ccccc1,2430 nM
19,Cc1ccc(C)c(NC(=S)NNC(=O)c2csc3c2CCC(C)C3)c1 (stereo not given),1150 nM
20,O=C1C=C(NCc2ccccc2)c2ccccc2C1=O,1860 nM
21,CCCCCCc1c(C)nc(-n2[nH]c(C)c(CCO)c2=O)[nH]c1=O,1690 nM
22,Cc1cccc(NC(=O)NNC(=O)c2cc3ccccc3cc2O)c1C,> 15000 nM (inactive)
23,CNC(=O)Nc1cc(C(F)(F)F)cc(C(F)(F)F)c1,742 nM
24,O=C(Nc1cccc(-c2cn3ccccc3n2)c1)c1cccc(Cl)c1,715 nM
25,COc1ccc(C(=O)N2c3ccccc3C=CC2C#N)cc1 (stereo not given),1760 nM
26,COc1ccc(C2c3ccc4ccccc4c3Oc3ncn(CCN4CCOCC4)c(=N)c32)cc1 (stereo not given),1180 nM
27,CCOc1ccc(CN(C(=O)c2oc3ccccc3c2C)C2CCS(=O)(=O)C2)cc1 (stereo not given),> 16000 nM (inactive)
28,CCOc1ccc(NC(=O)NNC(=O)c2ccc3ccccc3c2O)cc1,2460 nM

row,SMILES,EC50
1,COc1ccc(CNCCNC(=O)c2ccco2)c(OC)c1OC,> 16000 nM (inactive)
2,CCCCc1c(O)nc(SCC(=O)Nc2cccc3ccccc23)n(-c2ccccc2OC)c1=O,7770 nM
3,O=C(Nc1cccc(NC(=O)c2ccccc2Cl)c1)c1ccc([N+](=O)[O-])o1,716 nM
4,CN1CCN(C(c2cccnc2)c2ccc3cccnc3c2O)CC1 (stereo not given),> 16000 nM (inactive)
5,Cc1ccc(NC(=O)c2ccccc2NS(=O)(=O)c2ccc(Cl)s2)cc1,1160 nM
6,COc1ccccc1NC(c1cccnc1)c1ccc2cccnc2c1O (stereo not given),14900 nM
7,CC(=O)N(O)CCCCCNC(=O)CCC(=O)N(O)CCCCCNC(=O)CCC(=O)N(O)CCCCCN,727 nM
8,Cc1ccc2[nH]c(C)c(/C=C/c3cc[n+](C)cc3)c2c1,2910 nM
9,O=C(CCc1ccccc1)NNC(=S)NC(=O)c1ccccc1,3130 nM
10,O=c1c2ccc(Cl)cc2nc(-c2ccc([N+](=O)[O-])cc2)n1O,1100 nM
11,COc1ccc(NC(=O)Nc2nc3c(s2)CCCC3)cc1,2740 nM
12,COc1ccc(C2C(C(=O)c3cccs3)=C(O)C(=O)N2c2nncs2)cc1 (stereo not given),15200 nM
13,O=C(O)c1cnc(-c2ccccc2)nc1Sc1ccccc1Cl,> 16000 nM (inactive)
14,O=C(N/N=C/c1cc(Br)c(Br)o1)c1ccc2c(c1)OCCO2,643 nM
15,CCCCN(C)S(=O)(=O)c1ccc(C(=O)Nc2nnc(-c3cccs3)o2)cc1,> 15000 nM (inactive)
16,CC(=O)NC(CC(=O)NNC(=O)c1cc2ccccc2cc1O)c1ccccc1 (stereo not given),16000 nM
17,COc1ccc(NC(=O)NNC(=O)c2cc3ccccc3cc2O)cc1,> 16000 nM (inactive)
18,CCN(CC)c1nc(-c2ccccn2)nc(-c2ccccc2)c1C#N,4190 nM
19,O=C(N/N=C\C=C\c1ccc([N+](=O)[O-])o1)c1cccs1,> 16000 nM (inactive)
20,O=S(=O)(Cc1ccccc1)N1CCc2ccccc21,10900 nM
21,O=C(c1cc2c(s1)CCCCC2)N1CCN(c2ncccn2)CC1,135 nM
22,O=C(NCc1ccco1)c1ccccc1NS(=O)(=O)c1ccc(Br)s1,> 16000 nM (inactive)
23,Cc1nc(-n2[nH]c3c(c2=O)CCCC3)[nH]c(=O)c1Cc1ccccc1,541 nM
24,S=c1[nH]nc(C2CCCCC2)n1/N=C/c1ccc(Br)s1,1940 nM
25,Clc1ccc(OCCn2ccnc2)c2ccccc12,2910 nM
26,COC(=O)C1CCN(Cc2c(C(=O)N3C[C@@H](C)O[C@@H](C)C3)nc3ccc(Cl)cn23)CC1,> 15000 nM (inactive)
27,Cc1ccc(-n2c(-c3ccccc3)c[n+]3c2CCC3)cc1,8580 nM
